These results are taken from patent US5026687A (priority 1990, dated 1991).

The structures appear in SMILES notation. “Also recorded” adds a separate entry of the source.

The test system of data set [1] is HIV (cytopathic effect, ATH8 T cell line). The experiment in a line: Protection of ATH8 T cell line against cytopathic effect of HIV (synergy of combinations). The format is cell-based, human immunodeficiency virus. Particulars: in vitro.
In another data set the test system is retroviral replication. Particulars: cited from earlier work.
For data set [2] the following is noted: human, in vivo.
For another data set, the system named is HIV-infected patients. The experiment in a line: Combination therapy of patients with 2',3'-dideoxyinosine and other agents. The format is in vivo, human. An excerpt:
Examples of such therapies are disclosed in the following examples.
These two drugs are alternated in this manner about week-by-week for about one year. […] These two drugs are alternated about week-by-week for about 6 months.

Another data set has as its system HIV. The experiment in a line: Serum HIV p24 antigen and HIV load in treated patients. Format: in vivo.
In data set [3] the test system is patients with AIDS or AIDS-related complex. The experiment in a line: Clinical improvement (well being, energy, weight, duration of benefit) in treated patients. Format: in vivo, human.
Excerpt: Other patients had fatigue, loss of appetite, fevers, or recent weight loss. Many of these patients could not tolerate therapy with 3'-azido-2',3'-dideoxythymidine (AZT, zidovudine) because of nausea, malaise, or bone marrow toxicity, or were clinically deteriorating while on AZT treatment.
For data set [4] the following is noted: human, in vivo. This is another data set of the same source.
In data set [5] the test system is human immunodeficiency virus-associated neurological dysfunction. The experiment in a line: Cognitive function in patients with HIV-associated neurological dysfunction.
A further data set has as its system anergic patients. The experiment in a line: Cutaneous delayed type hypersensitivity reaction (skin test reactivity) of anergic patients. The format is in vivo, human.
The next data set in a line: clinical. The settings on record: human, in vivo, iv, 3.2 mg/kg.
Data set [6] has as its system patients with AIDS or AIDS-related complex. The experiment in a line: Immune parameters (circulating CD4+, CD8+, total lymphocytes, CD4+:CD8+ ratio) in treated patients. The format is in vivo, human.
The conditions of data set [7]: human, in vivo. This is another data set of the same source.
The nature of data set [8]: Conversion of 2',3'-dideoxyadenosine in patients. Format: in vivo, human. An excerpt:
In addition to the 37 patients mentioned above, another 20 patients have been treated for a total of 57.

For data set [9] the following is noted: beagle dog; previously shown; cited from earlier work.
The test system of a further data set is HIV p24 gag production. The settings on record: with 2',3'-dideoxyinosine, T-cell line.
For data set [10] the following is noted: even low doses, after patient has developed pancreatitis; cited from earlier work.
Data set [11] relates to patients with HIV infection. The settings on record: in vivo; cited from earlier work.
Setting [12] is: with gancyclovir about 500 mg/day iv, 2 weeks.
[13] abbreviates: about 1 to 7 mg/kg/day intravenously then about 2 to 14 mg/kg/day orally.
Where [14] appears, read: patients with HIV infection, intravenous or oral.

As to `Nc1ccn([C@H]2CC[C@@H](CO)O2)c(=O)n1` [2',3'-Dideoxycytidine], in [1], the “synergy with 2',3'-dideoxyinosine, protection of ATH8 against cytopathic effect of HIV” value was “synergistic”.
For the compound `OC[C@@H]1CC[C@H](n2cnc3c(O)ncnc32)O1` [2',3'-dideoxyinosine], the “suppression of retroviral replication” value in the data set on retroviral replication is on record as “known to suppress retroviral replication”. Moreover, in [2], the pancreatitis entry is listed as “can definitely cause pancreatitis” and the “time for amylase to return to about normal” value was “about one”. Moreover, the “evidence of pancreatitis after restart” value in data set [2] (6.4 mg/kg/day) is given as “no evidence of pancreatitis”. For the same compound, in data set [2] (po, 6.4 mg/kg/day), the “recurrence of pancreatitis after restart” value is listed as “did not recur” and the “serum amylase after restart” value turned out to be 80 U/liter. The “clinical symptoms of pancreatitis” value in data set [2] (po, 9.6 mg/kg/day) is recorded as “no clinical symptoms of pancreatitis”. The “outcome of combination with AZT” value in the data set with HIV-infected patients (AZT 300 mg/day with ddI 3.2 mg/kg/day, or AZT 600 mg/day alternating weekly with ddI 6.4 mg/kg/day, about one year) is on record as “Beneficial effects are seen”. Also, in the data set with HIV-infected patients (ddC 0.015 mg/kg/day with ddI 3.2 mg/kg/day, or ddC 0.03 mg/day alternating weekly with ddI 6.4 mg/kg/day, about 6 months), the “outcome of combination with ddC” value was “Beneficial effects are seen”. Also, in the data set with HIV-infected patients (ddI 3.2 mg/kg/day orally, ribavirin 100 to 2400 mg/day orally, about 6 months), the “outcome of combination with ribavirin” value is “Beneficial effects are seen”. Moreover, the “clinical course with pentamidine prophylaxis” value in the data set with HIV-infected patients (ddI 4.8 mg/kg/day iv 2 weeks then 9.6 mg/kg/day orally 56 weeks, 300 mg pentamidine isothionate inhaled monthly) is listed as “clinically did well”. For the same compound, the “outcome of combination with dextran sulfate” value in the data set with HIV-infected patients (ddI 6.4 mg/kg/day orally, dextran sulfate 2700 mg/day iv, about 6 months) was “Beneficial effects are seen”. Moreover, the “outcome of combination with rCD4” value in the data set with HIV-infected patients (ddI 6.4 mg/kg/day orally, rCD4 300 μg/kg/day iv, 1 year) is on record as “Beneficial effects are seen”. In addition, in the data set with HIV-infected patients (ddI 1 to 14 mg/kg/day orally with 0.5 to 10 million units interferon alpha daily, about 3 months, Kaposi's sarcoma), the “outcome of combination with interferon alpha” value was “Beneficial effects are seen”. In addition, in the data set on HIV-infected patients (ddI 1 to 14 mg/kg/day orally with 25,000 to 1 million U/day IL-2, about 3 months), the “outcome of combination with IL-2” value was “Beneficial effects are seen”. Further, in the data set with HIV-infected patients (with 300 mg pentamidine isothionate inhaled monthly, about 56 weeks), the “development of Pneumocystis carinii pneumonia” value was “did not develop Pneumocystis carinii pneumonia”. The “recurrence of cytomegalovirus retinitis” value in the data set with HIV-infected patients (with acyclovir 4800 mg/day, 4 weeks) is given as “the retinitis has not recurred”. For the same compound, in the data set on HIV-infected patients (setting [12]), the increase in weight entry is recorded as “about 2.2 kg” and the “recurrence of cytomegalovirus retinitis” value is “has not had a recurrence of the retinitis”. For the same compound, the “patient's report” value in the data set with HIV-infected patients (with gancyclovir about 500 mg/day iv, ddI 6.4 mg/kg/day orally, 2 weeks) is “reports feeling better”. Further, the “replication of HIV” value in the data set with HIV (35 evaluable patients) was “a decrease in the replication in their HIV”. For the same compound, the “patients with no detectable serum HIV p24 antigen” value in the data set with HIV (after about one year, about 6.4 to 9.6 mg/kg/day oral) is listed as “two”. The “serum HIV p24 antigen (change)” value in the data set with HIV (by week 6, about 1 to 7 mg/kg/day iv then about 2 to 14 mg/kg/day orally, patients with detectable p24) is listed as “substantial decreases in their serum HIV p24 antigen”. In the data set with HIV (first 6 weeks, about 6.4 to 9.6 mg/kg/day orally, 3 patients with detectable p24 before therapy), the “patients with decline in serum HIV p24 antigen” value is on record as “All 3 had a decline”. Moreover, in the data set on HIV (intravenous or oral route), the “reduction of p24 antigen detectable in serum” value is on record as “a reduction of the amount of p24 antigen”. Also, the “serum HIV p24 antigen in patients viremic in the face of AZT” value with HIV (patients viremic in the face of AZT therapy) was “a fall in serum HIV p24 antigen”. In addition, the “load of HIV in circulating lymphocytes by polymerase chain reaction” value with HIV (while receiving 2',3'-dideoxyinosine) is “a decrease in the load of HIV in their circulating lymphocytes”. Besides, the clinical improvement entry in [3] (35 evaluable patients) is reported as “clinical improvement”. The “patients reporting an improvement in well being” value in data set [3] (37 patients, increase in energy, decreased sleep requirements, or increased appetite) was “approximately one half of the 37 patients”. Moreover, in [3] (about 2 to 14 mg/kg/day orally with buffers or antacid), the “patients in whom the beneficial changes were seen” value is reported as “nearly all of the patients”. In addition, the “persistence of clinical improvements” value in data set [3] (about 2 to about 14 mg/kg/day orally with antiacids or buffers) is listed as “can persist over at least a year's period of time”. Further, the average weight gain in data set [3] (first 6 weeks of therapy) was 1.5 kg. Moreover, in data set [3] (intravenous or oral route), the “energy (change)” value is “an increase in energy” and the “weight (change)” value was “an increase in weight”. Also, the hepatitis after discontinuation result in data set [4] is “the hepatitis resolved”. Besides, in data set [4] (po, 6.4 mg/kg/day), the “recurrence of hepatitis after restart” value is given as “did not recur”. In addition, the “patients with improved cognitive function” value in data set [5] (6 to 10 weeks of therapy, memory, speed and precision of doing tasks) was 4 patients. In addition, in [5] (intravenous or oral route), the “cognitive dysfunction associated with HIV infection” value is “an improvement in cognitive dysfunction”. Also, the memory quotient in data set [5] (one patient, about 9.6 mg/kg/day orally in 3 doses, from 111, after 6 weeks) was 121. For the same compound, the “anergic patients developing skin test reactivity to at least one test antigen” value with anergic patients (after approximately 6 weeks of therapy) was 7 of these 23 (anergic patients. Further, in the data set with anergic patients (some patients), the “cutaneous delayed type hypersensitivity reaction of anergic patients” value is “regained the ability to mount a cutaneous delayed type hypersensitivity reaction to at least one test antigen”. For the same compound, in “clinical”, the Cmax was approximately 10 µM and the half-life was approximately 40 min. Also, under “chronic oral administration in a given person”, the “oral absorption and pharmacokinetics on chronic administration” value is reported as “remain fairly constant”. Also, the “oral absorption, non-fasting” value (oral, patient not in a fasting state) is listed as “effectively absorbed”. Also, the “patients still having increases in circulating CD4+ lymphocytes” value in data set [6] (3.2 to 4.8 mg/kg/day iv about 2 weeks, then about 6.4 to 9.6 mg/kg/day orally, about one year) was 4 of the first 7 patients. Also, in data set [6] (setting [13]), the “number of circulating CD4+ lymphocytes (change)” value is recorded as “substantial increases in the number of circulating CD4+ lymphocytes”, the “number of circulating CD8+ lymphocytes (change)” value is recorded as “increases in the number of circulating CD8+ lymphocytes” and the “number of circulating total lymphocytes (change)” value was “increases in the number of circulating total lymphocytes”. In data set [6] (about 2 to 14 mg/kg/day orally after intravenous, within about), the “time within which lymphocyte changes were observed” value is not above 2 weeks. The immune parameters improvement entry in data set [6] (below 2 mg/kg/day orally) is listed as “not as consistently seen”. Moreover, the “duration of lymphocyte changes” value in data set [6] (in many cases, about 2 to 14 mg/kg/day orally) was “at least one”. Further, in [6] (intravenous or oral route, long periods of time), the immune function result is recorded as “improvement in immune function”. The immune parameters improvement result in [6] (more than 14 mg/kg/day orally, some patients) is “improvements in immune parameters”. In addition, in [6] (one patient, baseline about 31, 1.6 mg/kg/day iv about 2 weeks, then oral 3.2 (10 weeks), 4.8 (21 weeks), 9.6 mg/kg/day (31 weeks)), the “CD4+ lymphocytes after treatment” value is on record as “about 90 CD4+ lymphocytes/mm^3”. For the same compound, the “CD4+ increases by prior AZT therapy” value in data set [6] (patients who had previously received 4 months or less of AZT) is given as “most consistently seen”. In data set [6] (setting [14]), the “number of circulating CD4+ lymphocytes (change)” value is on record as “an increase in the number of circulating CD4+ lymphocytes; also recorded: increases in their circulating CD4+ cells”, the “number of circulating CD8+ lymphocytes (change)” value was “an increase in the number of CD8+ lymphocytes; also recorded: increases in the number of CD8+ lymphocytes” and the “number of circulating total lymphocytes (change)” value is listed as “an increase in the number of circulating total lymphocytes; also recorded: increases in the number of total lymphocytes”. Besides, the “CD8+ lymphocytes after treatment” value in [6] (same first patient, baseline 189) is on record as “about 302 CD8+ lymphocytes/mm^3”. Moreover, the “total lymphocytes after treatment” value in [6] (same first patient, baseline 405) was “about 816 total lymphocytes/mm^3”. In data set [6] (second patient, baseline 844, about one year), the “CD8+ lymphocytes after treatment” value was “about 1256 CD8+ lymphocytes/mm^3”. For the same compound, the “total lymphocytes after treatment” value in [6] (second patient, baseline 1270, about one year) was “about 1794 total lymphocytes/mm^3”. The “CD4+ lymphocytes after treatment” value in [6] (second patient, baseline about 219, 4.8 mg/kg/day iv about 2 weeks then 9.6 mg/kg/day oral, about one year) was “about 359 CD4+ lymphocytes/mm^3”. In [7], the “cumulative dose exceeded without neuropathy appearing” value is more than 1.5 gm/kg and the “neuropathy after prompt stopping in warning phase” value is given as “the neuropathy subsided”. Further, the “synergy with dextran sulfate, protection of ATH8 against cytopathic effect of HIV” value in data set [1] (with dextran sulfate) is “synergistic”.
For the compound `Nc1ncnc2c1ncn2[C@H]1CC[C@@H](CO)O1` [2',3'-dideoxyadenosine], the “conversion to 2',3'-dideoxyinosine” value in [8] is “rapidly converted to 2',3'-dideoxyinosine”. The oral bioavailability entry in data set [9] is “can be orally bioavailable”.
In the case of `NC(=O)c1ncn([C@@H]2O[C@H](CO)[C@@H](O)[C@H]2O)n1` [Ribavirin], the “effect on the anti-HIV effect of 2',3'-dideoxyinosine (HIV p24 gag production)” value in the data set with HIV p24 gag production is “induce enhancement of the anti-HIV effect”.
With `Sc1ncnc2nc[nH]c12` [6-mercaptopurine], the pancreatitis on re-administration result in data set [10] was “causes pancreatitis that returns acutely”.
As to `Cc1cn([C@H]2C[C@H](N=[N+]=[N-])[C@@H](CO)O2)c(=O)[nH]c1=O` [AZT, 3'-azido-2',3'-dideoxythymidine], the “synergy with 2',3'-dideoxyinosine, protection of ATH8 against cytopathic effect of HIV” value in data set [1] is reported as “synergistic”. In data set [11], the hepatic dysfunction result was “can cause hepatic dysfunction”; the “pancreatitis or peripheral neuropathy” value was “not known to cause pancreatitis or a peripheral neuropathy”; the “toxicities and side effects” value was “anemia, other bone marrow suppression, and certain other toxicities such as myositis (muscle destruction or inflammation), headaches, nausea, vomiting, malaise, or seizures”.
